Source: patent publication US20110152085A1, “Herbicidal Compositions Comprising Flufenacet” (BAYER CROPSCIENCE AG, priority 2009, published 2011)

Legend:
STEME [1] = assay: Greenhouse trial, pre-sowing application 7 days prior to sowing, weeds; format: in vivo, Stellaria media; settings: g of AS/ha: (A) 90, (B) 300
Procedure: (§1) In the standard design of the test, seeds of various broad-leaved weed and weed grass biotypes (origins) were sown in a 8-13 cm diameter pot filled with natural soil of a standard field soil (loamy silt; non-sterile) and covered with a covering soil layer of about 1 cm. The pots were then cultivated in a greenhouse (12-16 h of light, temperature day 20-22° C., night 15-18° C.) until the time of application. The pots were treated on a laboratory track sprayer with spray liquors comprising the compositions according to the invention, mixtures of the prior art or components used individually. Application of the active compounds or active compound combinations formulated as WG, WP, EC or otherwise was carried out at the appropriate growth stages of the plants. The application rate for the spray application was 100-600 l of water/ha. After the treatment, the plants were returned to the greenhouses.
(§2) About 3 weeks after the application, the soil action or/and foliar action was assessed visually according to a scale of 0-100% in comparison to an untreated comparative group: 0%=no noticeable effect compared to the untreated comparative group; 100%=full effect compared to the untreated comparative group. […]

HORVS = assay: Greenhouse trial, selective post-emergence (PO) action, crop plant; format: in vivo, Hordeum vulgare, summer barley; settings: PO application, g of AS/ha: (A) 120, (B) 600
Procedure: as §1, §2

MATCH = assay: Greenhouse trial, PE application on sensitive and resistant biotypes; format: in vivo, Matricaria chamomilla; settings: g of AS/ha: (A) 120, (B) 600, iodosulfuron 10; for MATCH resistant activity (visual, scale 0-100%): resistant biotype; for MATCH sensitive activity (visual, scale 0-100%): sensitive biotype
Procedure: as §1
(§3) About 3 weeks after the application, the soil action or/and foliar action was assessed visually according to a scale of 0-100% in comparison to an untreated comparative group: 0%=no noticeable effect compared to the untreated comparative group; 100%=full effect compared to the untreated comparative group.
(§4) (notes: the term “seeds” also includes vegetative propagation forms such as, for example, rhizome pieces; abbreviations used: h light=hours of illumination, g of AS/ha=gram of active substance per hectare, l/ha=liter per hectare, S=sensitive, R=resistant) • 1. Pre-emergence action against weeds: seeds of various broad-leaved weed and weed grass biotypes (origins) were sown in a 8-13 cm diameter pot filled with natural soil of a standard field soil (loamy silt; non-sterile) and covered with a covering soil layer of about 1 cm. The pots were then cultivated in a greenhouse (12-16 h of light, temperature day 20-22° C., night 15-18° C.) until the time of application. The pots were treated at the BBCH stage 00-10 of the seeds/plants on a laboratory track sprayer with spray liquors comprising the compositions according to the invention, mixtures or components used individually, as WG, WP, EC or other formulations. The application rate for the spray application was 100-600 l of water/ha. After the treatment, the plants were returned to the greenhouses and, when required, treated with fertilizer and watered. • 2. Post-emergence action against weeds: seeds of various broad-leaved weed and weed grass biotypes (origins) were sown in a 8-13 cm diameter pot filled with natural soil of a standard field soil (loamy silt; non-sterile) and covered with a covering soil layer of about 1 cm. The pots were then cultivated in a greenhouse (12-16 h of light, temperature day 20-22° C., night 15-18° C.) until the time of application. The pots were treated at various BBCH stages between 11-25 of the seeds/plants, i.e. generally between two to three weeks after the start of the cultivation, on a laboratory track sprayer with spray liquors comprising the compositions according to the invention, mixtures or components used individually, as WG, WP, EC or other formulations. The application rate for the spray application was 100-600 l of water/ha. After the treatment, the plants were returned to the greenhouses and, when required, treated with fertilizer and watered. • 3. Pre-emergence action against weeds with and without incorporation of active compound: seeds of various broad-leaved weed and weed grass biotypes (origins) were sown in a 8-13 cm diameter pot filled with natural soil of a standard field soil (loamy silt; non-sterile). […]

TRZAW [2] = assay: Greenhouse trial, incorporation of active compound into the soil covering layer, crop plant; format: in vivo, Triticum aestivum, winter wheat; settings: g of AS/ha: (A) 90, (B) 300, (C) mefenpyr 300
Procedure: as §1, §2

TRZAS [3] = assay: Greenhouse trial, selective pre-emergence action (PE application), crop plant; format: in vivo, Triticum aestivum, summer wheat
Procedure: as §1, §3
(§5) (notes: the term “seeds” also includes vegetative propagation forms such as, for example, rhizome pieces; abbreviations used: h light=hours of illumination, g of AS/ha=gram of active substance per hectare, l/ha=liter per hectare, S=sensitive, R=resistant) • 1. Pre-emergence action against weeds: seeds of various broad-leaved weed and weed grass biotypes (origins) were sown in a 8-13 cm diameter pot filled with natural soil of a standard field soil (loamy silt; non-sterile) and covered with a covering soil layer of about 1 cm. The pots were then cultivated in a greenhouse (12-16 h of light, temperature day 20-22° C., night 15-18° C.) until the time of application. The pots were treated at the BBCH stage 00-10 of the seeds/plants on a laboratory track sprayer with spray liquors comprising the compositions according to the invention, mixtures or components used individually, as WG, WP, EC or other formulations. The application rate for the spray application was 100-600 l of water/ha. After the treatment, the plants were returned to the greenhouses and, when required, treated with fertilizer and watered. • 2. Post-emergence action against weeds: seeds of various broad-leaved weed and weed grass biotypes (origins) were sown in a 8-13 cm diameter pot filled with natural soil of a standard field soil (loamy silt; non-sterile) and covered with a covering soil layer of about 1 cm. The pots were then cultivated in a greenhouse (12-16 h of light, temperature day 20-22° C., night 15-18° C.) until the time of application. […]

HORVW [4] = assay: as above; format: in vivo, Hordeum vulgare, winter barley; settings: g of AS/ha: (A) 90, (B) 300, (C) mefenpyr 300
Procedure: as §1, §2

POAAN = assay: Greenhouse trial, post-emergence (PO) action against weeds; format: in vivo, Poa annua; settings: PO application; g of AS/ha: (A) 120, (B) 600
Procedure: as §1, §2

VIOAR [5] = assay: Greenhouse trial, pre-emergence (PE) soil application, action against weeds; format: in vivo, Viola arvensis; settings: g of AS/ha: (A) 90, (B) 300, (C) mefenpyr 300, about 3 weeks after application
Procedure: as §1, §2

TRZAS [6] = assay: Greenhouse trial, incorporation of active compound into the soil covering layer, crop plant; format: in vivo, Triticum aestivum, summer wheat; settings: g of AS/ha: (A) 90, (B) 300, (C) mefenpyr 300
Procedure: as §1, §2

STEME [7] = assay: Greenhouse trial, PE application on sensitive and resistant biotypes; format: in vivo, Stellaria media; settings: g of AS/ha: (A) 120, (B) 600, iodosulfuron 10; for STEME resistant activity (visual, scale 0-100%): resistant biotype; for STEME sensitive activity (visual, scale 0-100%): sensitive biotype
Procedure: as §1, §3, §4

STEME [8] = assay: Greenhouse trial, PE application (comparison with pre-sowing method), weeds; format: in vivo, Stellaria media; settings: g of AS/ha: (A) 90, (B) 300
Procedure: as §1, §2

TRZAW [9] = assay: Greenhouse trial, selective pre-emergence action (PE application), crop plant; format: in vivo, Triticum aestivum, winter wheat; settings: g of AS/ha: (A) 90, (B) 300, (C) mefenpyr 300
Procedure: as §1, §2

AVEFA [10] = assay: Greenhouse trial, pre-sowing application 7 days prior to sowing, weeds; format: in vivo, Avena fatua; settings: g of AS/ha: (A) 90, (B) 300
Procedure: as §1, §2

ALOMY = assay: Greenhouse trial, post-emergence (PO) action against weeds; format: in vivo, Alopecurus myosuroides; settings: PO application; g of AS/ha: (A) 120, (B) 600
Procedure: as §1, §2

LOLPE = assay: Greenhouse trial, PE application with different soil types; format: in vivo, Lolium perenne; settings: g of AS/ha: (A) 90, (B) 300
Procedure: as §1, §3, §5

VIOAR [11] = assay: Greenhouse trial, incorporation of active compound into the soil covering layer, action against weeds; format: in vivo, Viola arvensis; settings: g of AS/ha: (A) 90, (B) 300, (C) mefenpyr 300
Procedure: as §1, §2

TRZAS [12] = assay: Greenhouse trial, pre-sowing application 7 days prior to sowing, crop plant; format: in vivo, Triticum aestivum, summer wheat; settings: g of AS/ha: (A) 90, (B) 300
Procedure: as §1, §2

AVEFA [13] = assay: Greenhouse trial, post-emergence (PO) action against weeds; format: in vivo, Avena fatua; settings: PO application; g of AS/ha: (A) 120, (B) 600
Procedure: as §1, §2

HORVW [14] = assay: Greenhouse trial, incorporation of active compound into the soil covering layer, crop plant; format: in vivo, Hordeum vulgare, winter barley; settings: g of AS/ha: (A) 90, (B) 300, (C) mefenpyr 300
Procedure: as §1, §2

AVEFA [15] = assay: Greenhouse trial, PE application (comparison with pre-sowing method), weeds; format: in vivo, Avena fatua; settings: g of AS/ha: (A) 90, (B) 300
Procedure: as §1, §2

[16] = g of AS/ha: (A) 90, (B) 300, (C) mefenpyr 300
[17] = g of AS/ha: (A) 90, (B) 300, Table 3

| SMILES | STEME activity (visual, scale 0-100%) (STEME [1]) [%] | HORVS activity (visual, scale 0-100%) (HORVS) [%] | MATCH resistant activity (visual, scale 0-100%) (MATCH) [%] | MATCH sensitive activity (visual, scale 0-100%) (MATCH) [%] | TRZAW activity (visual, scale 0-100%) (TRZAW [2]) [%] | TRZAS activity (visual, scale 0-100%) (TRZAS [3]; [16]) [%] | TRZAS activity (visual, scale 0-100%) (TRZAS [3]; [17]) [%] | HORVW activity (visual, scale 0-100%) (HORVW [4]) [%] | POAAN activity (visual, scale 0-100%) (POAAN) [%] | VIOAR activity (visual, scale 0-100%) (VIOAR [5]) [%] | TRZAS activity (visual, scale 0-100%) (TRZAS [6]) [%] | STEME resistant activity (visual, scale 0-100%) (STEME [7]) [%] | STEME sensitive activity (visual, scale 0-100%) (STEME [7]) [%] | STEME activity (visual, scale 0-100%) (STEME [8]) [%] | TRZAW activity (visual, scale 0-100%) (TRZAW [9]) [%] | AVEFA activity (visual, scale 0-100%) (AVEFA [10]) [%] | ALOMY activity (visual, scale 0-100%) (ALOMY) [%] | LOLPE IU soil activity (visual, scale 0-100%) (LOLPE) [%] | LOLPE IU/EC73 soil activity (visual, scale 0-100%) (LOLPE) [%] | VIOAR activity (visual, scale 0-100%) (VIOAR [11]) [%] | other results |
| --- | --- | --- | --- | --- | --- | --- | --- | --- | --- | --- | --- | --- | --- | --- | --- | --- | --- | --- | --- | --- | --- |
| CC(C)N(C(=O)COc1nnc(C(F)(F)F)s1)c1ccc(F)cc1 [(A) flufenacet, N-(4-fluorophenyl)-N-(1-methylethyl)-2-[[5-(trifluoromethyl)-1,3,4-thiadiazol-2-yl]oxy]acetamide] | 35 | 40 | 50 | 50 | 60 | 20 | 20 | 20 | 60 | 0 | 50 | 0 | 0 | 0 | 30 | 70 | 65 | 95 | 74 | 0 | TRZAS activity (visual, scale 0-100%) (TRZAS [12]): 50%; AVEFA activity (visual, scale 0-100%) (AVEFA [13]): 70%; HORVW activity (visual, scale 0-100%) (HORVW [14]): 60%; AVEFA activity (visual, scale 0-100%) (AVEFA [15]): 80% |
| CCCN(CCC)c1c([N+](=O)[O-])cc(C(F)(F)F)cc1[N+](=O)[O-] [(B) trifluralin, 2,6-dinitro-N,N-dipropyl-4-(trifluoromethyl)benzenamine] | 30 | 20 | 20 | 20 | 100 | 0 | 0 | 0 | 40 | 0 | 90 | 20 | 20 | 10 | 20 | 60 | 30 | 55 | 0 | 10 | TRZAS activity (visual, scale 0-100%) (TRZAS [12]): 20%; AVEFA activity (visual, scale 0-100%) (AVEFA [13]): 20%; HORVW activity (visual, scale 0-100%) (HORVW [14]): 60%; AVEFA activity (visual, scale 0-100%) (AVEFA [15]): 70% |
| COc1nc(C)nc(NC(=O)NS(=O)(=O)c2cc(I)ccc2C(=O)O)n1 [(C) iodosulfuron] |  |  | 60 | 100 |  |  |  |  |  |  |  | 40 | 90 |  |  |  |  |  |  |  |  |
